{"source": "patent US9910031B2", "about": "“Compositions and methods for modulating c-Rel-dependent cytokine production” (Synta Pharmaceuticals Corporation, priority 2003, dated 2018)", "key": {"NFκB": {"test_system": "NFκB", "experiment": "Gel-shift assay of NFκB binding to the IL-12 p40 promoter site, THP-1 nuclear extracts", "assay_type": "cell-based, human", "settings": "IFN-γ-primed, SAC-stimulated THP-1; 1 μM Compound 1 or 10 mM ASA", "experimental": "Nuclear extracts were prepared from IFN-γ-primed THP-1 cells that had been treated with or without SAC and incubated in the presence or absence of 1 μM Compound 1 or 10 mM ASA. Isolation of nuclear extracts was accomplished by first suspending THP-1 cells in 20 volumes of buffer A containing 10 mM KCl, 10 mM HEPES (pH 7.9), 1 mM MgCl2, 1 mM dithiothreitol (DTT), 0.1% Nonidet p40 (NP-40), and 0.5 mM phenylmethylsulfonyl fluoride (PMSF) and then homogenizing and centrifuging at 10,000 rpm at 4° C. for 5 min. Nuclear pellets were then suspended in buffer C containing 400 mM NaCl, 20 mM HEPES pH 7.9), 15 mM MgCl2, 0.2 mM EDTA, 1 mM DTT, 25% glycerol, 1 mM PMSF, and 10 μg of leupeptin, 20 μg of pepstatin, and 10 μg of antipain per ml, incubated for 30 min at 4° C., and centrifuge at 14,000 rpm for […]. The supernatants were dialyzed against buffer D containing 100 mM NaCl, 20 mM HEPES (pH 7.9), 20% glycerol, 1 mM PMSF, and 1 mM DTT.\nThe extracts obtained from this process were used in gel-shift assays using oligonucleotides containing the NFκB target sequence corresponding to the region −121 to −102 from the transcription initiation site of IL-12 p40 or a mutated NFκB binding site. […] This interaction was specific as it was competed away by an excess of unlabeled probe, but not by a mutated oligonucleotide in which two base-pairs were substituted. […]"}, "IL-12 p70": {"test_system": "IL-12 p70", "experiment": "Inhibition of production of IL-12 p70 protein", "assay_type": "cell-based, human", "settings": "1 μM Compound 1; 10 mM ASA", "experimental": "Cells were co-transfected with the vector pCMV (BD Biosciences Clontech) in which the constitutively active CMV promoter directs β-galactosidase expression for the monitoring of transfection efficiency. Luciferase and β-galactosidase activity were determined in cell extracts prepared according to the Luciferase assay system (Promega) and Luminescent n-gal Detection system (BD Biosciences Clontech). Luciferase activity was then normalized using the β-galactosidase value. […] ELISA was performed by the following method. Human IL-12 p70 (heterodimer) was assayed using ELI-PAIR kit from Cell Sciences (Norwood, Mass.), according to the manufacturer's instructions. Human IL-12 p40 was assayed using ELISA kit from Cell Sciences (Norwood, Mass.) according to the manufacturer's instructions.\nThe extracts obtained from this process were used in gel-shift assays using oligonucleotides containing the NFκB target sequence corresponding to the region −121 to −102 from the transcription initiation site of IL-12 p40 or a mutated NFκB binding site. […] This interaction was specific as it was competed away by an excess of unlabeled probe, but not by a mutated oligonucleotide in which two base-pairs were substituted. […] This is expected since a compound that potently blocks NFkB have a far broader cytokine inhibitory profile than Compound 1/Compound 2."}}, "data": [{"smiles": "CC(=O)Oc1ccccc1C(=O)O", "note": "[ASA, reference compound]", "values": [{"measurement": "NFκB binding to p40 promoter probe (gel shift)", "setting": "NFκB", "result": "reduced the binding significantly"}, {"measurement": "percent inhibition of production of IL-12 p70 protein", "setting": "IL-12 p70", "result": 45, "unit": "%"}]}]}
